Read-outs that look alike come from different tables or passages of the source.
What was measured:
CDK13/Cyclin K = CDK13/Cyclin K (Homo sapiens, UniProt Q14004); assay: NanoBRET live-cell target engagement, CDK13-NanoLuc/Cyclin K in HEK-293; assay type: binding; conditions: CDK13/K, read-out: Inhibition at 10µM (%)
CDK10/Cyclin L2 = CDK10/Cyclin L2 (Homo sapiens, UniProt Q15131); assay: NanoBRET live-cell target engagement, CDK10-NanoLuc/Cyclin L2 in HEK-293; conditions: read-out: Inhibition at 10µM (%), CDK10/L2
Sequence of CDK10/Cyclin L2 (Q15131 whole entry): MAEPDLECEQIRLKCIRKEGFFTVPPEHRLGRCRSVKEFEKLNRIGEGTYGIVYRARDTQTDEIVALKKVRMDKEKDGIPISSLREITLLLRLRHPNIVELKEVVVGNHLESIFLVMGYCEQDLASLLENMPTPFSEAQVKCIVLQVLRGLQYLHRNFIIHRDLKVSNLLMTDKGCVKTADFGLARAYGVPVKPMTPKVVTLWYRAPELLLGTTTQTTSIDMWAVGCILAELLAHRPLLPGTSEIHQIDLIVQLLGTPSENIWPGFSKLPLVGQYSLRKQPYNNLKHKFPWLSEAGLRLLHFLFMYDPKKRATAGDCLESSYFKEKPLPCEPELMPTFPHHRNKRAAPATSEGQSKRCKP

CDK9/Cyclin K = CDK9/Cyclin K (Homo sapiens, UniProt P50750); assay: NanoBRET live-cell target engagement, NanoLuc-CDK9/Cyclin K in HEK-293; assay type: binding; conditions: CDK9/K, read-out: Inhibition at 10µM (%)
CDK8/Cyclin C = CDK8/Cyclin C (Homo sapiens, UniProt P49336); assay: NanoBRET live-cell target engagement, NanoLuc-CDK8/Cyclin C in HEK-293; assay type: binding; conditions: CDK8/C, read-out: Inhibition at 10µM (%)
Sequence of CDK8/Cyclin C (P49336 whole entry): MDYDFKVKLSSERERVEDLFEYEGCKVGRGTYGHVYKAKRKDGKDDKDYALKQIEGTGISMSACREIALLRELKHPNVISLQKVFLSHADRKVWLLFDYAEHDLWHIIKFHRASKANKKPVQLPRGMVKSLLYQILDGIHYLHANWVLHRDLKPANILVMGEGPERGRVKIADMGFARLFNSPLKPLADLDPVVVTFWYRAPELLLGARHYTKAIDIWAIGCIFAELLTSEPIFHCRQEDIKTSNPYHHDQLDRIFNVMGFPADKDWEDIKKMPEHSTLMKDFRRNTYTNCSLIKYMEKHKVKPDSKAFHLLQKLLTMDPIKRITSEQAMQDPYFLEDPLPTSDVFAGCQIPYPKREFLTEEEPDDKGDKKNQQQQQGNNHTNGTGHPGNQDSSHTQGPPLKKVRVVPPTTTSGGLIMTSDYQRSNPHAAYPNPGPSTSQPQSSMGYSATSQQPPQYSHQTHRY
Sequence of CDK8/Cyclin C (P24863 whole entry partner): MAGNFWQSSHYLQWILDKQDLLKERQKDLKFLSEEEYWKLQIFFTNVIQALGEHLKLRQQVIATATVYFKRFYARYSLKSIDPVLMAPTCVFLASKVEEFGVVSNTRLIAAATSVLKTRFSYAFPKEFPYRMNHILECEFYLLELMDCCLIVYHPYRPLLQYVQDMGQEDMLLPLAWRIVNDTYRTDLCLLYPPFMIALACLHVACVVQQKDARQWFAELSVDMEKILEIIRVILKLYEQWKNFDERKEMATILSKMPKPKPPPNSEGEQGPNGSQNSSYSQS

CDK7 = CDK7 (Homo sapiens, UniProt P50613); assay: NanoBRET live-cell target engagement, NanoLuc-CDK7 in HEK-293; assay type: binding; conditions: CDK7, read-out: Inhibition at 10µM (%)
CDK15/Cyclin Y = CDK15/Cyclin Y (Homo sapiens, UniProt Q96Q40); assay: NanoBRET live-cell target engagement, NanoLuc-CDK15/Cyclin Y in HEK-293; assay type: binding; conditions: read-out: Inhibition at 10µM (%), CDK15/Y
Sequence of CDK15/Cyclin Y (Q96Q40 whole entry): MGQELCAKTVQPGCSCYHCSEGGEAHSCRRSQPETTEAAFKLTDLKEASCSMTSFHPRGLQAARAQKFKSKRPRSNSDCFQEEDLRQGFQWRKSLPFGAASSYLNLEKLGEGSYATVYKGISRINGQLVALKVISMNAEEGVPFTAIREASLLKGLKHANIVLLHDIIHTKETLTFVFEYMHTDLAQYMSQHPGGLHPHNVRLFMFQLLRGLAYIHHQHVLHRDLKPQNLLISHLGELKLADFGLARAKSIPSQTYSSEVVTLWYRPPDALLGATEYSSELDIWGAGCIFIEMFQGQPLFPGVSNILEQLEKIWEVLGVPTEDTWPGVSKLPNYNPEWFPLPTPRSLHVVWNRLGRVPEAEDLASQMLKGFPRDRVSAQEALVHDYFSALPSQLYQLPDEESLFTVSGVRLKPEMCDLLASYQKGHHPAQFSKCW
Sequence of CDK15/Cyclin Y (Q8ND76 whole entry partner): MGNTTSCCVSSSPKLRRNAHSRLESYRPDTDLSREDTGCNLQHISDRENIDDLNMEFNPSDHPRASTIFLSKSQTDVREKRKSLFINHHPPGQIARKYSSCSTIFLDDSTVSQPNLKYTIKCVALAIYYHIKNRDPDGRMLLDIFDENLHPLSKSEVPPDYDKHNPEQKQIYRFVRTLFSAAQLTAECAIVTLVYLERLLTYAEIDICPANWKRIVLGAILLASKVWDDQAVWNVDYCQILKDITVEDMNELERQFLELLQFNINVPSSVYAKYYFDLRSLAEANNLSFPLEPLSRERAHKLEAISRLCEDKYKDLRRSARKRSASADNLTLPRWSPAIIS

CDK11A/Cyclin L2 = molecular target: T1, CDK11A/Cyclin L2 (Homo sapiens, UniProt Q9UQ88); assay: NanoBRET live-cell target engagement, CDK11A-NanoLuc/Cyclin L2 in HEK-293; assay type: binding; conditions: read-out: Inhibition at 10µM (%), CDK11a/L2
T1 sequence (Q9UQ88 1-783): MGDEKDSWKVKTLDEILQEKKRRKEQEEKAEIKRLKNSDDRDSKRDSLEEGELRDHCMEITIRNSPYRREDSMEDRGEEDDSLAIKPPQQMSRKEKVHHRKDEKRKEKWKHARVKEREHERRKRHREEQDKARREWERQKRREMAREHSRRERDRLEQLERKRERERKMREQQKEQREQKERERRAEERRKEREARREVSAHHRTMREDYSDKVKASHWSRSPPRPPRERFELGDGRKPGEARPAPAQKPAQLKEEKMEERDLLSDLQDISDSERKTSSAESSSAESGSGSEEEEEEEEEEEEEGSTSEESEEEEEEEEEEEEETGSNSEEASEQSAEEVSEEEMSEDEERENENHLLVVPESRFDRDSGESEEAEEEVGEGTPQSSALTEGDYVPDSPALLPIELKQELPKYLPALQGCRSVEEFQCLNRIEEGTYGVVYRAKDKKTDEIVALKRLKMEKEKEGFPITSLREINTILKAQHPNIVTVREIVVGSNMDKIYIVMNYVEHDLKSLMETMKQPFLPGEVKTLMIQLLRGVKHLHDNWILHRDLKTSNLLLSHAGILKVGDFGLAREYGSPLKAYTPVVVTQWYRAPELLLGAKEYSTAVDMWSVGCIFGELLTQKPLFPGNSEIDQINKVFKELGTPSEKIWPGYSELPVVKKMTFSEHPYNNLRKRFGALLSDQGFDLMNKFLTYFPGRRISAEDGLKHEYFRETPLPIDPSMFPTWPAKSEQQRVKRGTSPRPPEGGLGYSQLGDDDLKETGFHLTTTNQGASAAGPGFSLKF

CDK6/Cyclin D1 = CDK6/Cyclin D1 (Homo sapiens, UniProt Q00534); assay: NanoBRET live-cell target engagement, NanoLuc-CDK6/Cyclin D1 in HEK-293; assay type: binding; conditions: CDK6/D1, read-out: Inhibition at 10µM (%)
Sequence of CDK6/Cyclin D1 (Q00534 whole entry): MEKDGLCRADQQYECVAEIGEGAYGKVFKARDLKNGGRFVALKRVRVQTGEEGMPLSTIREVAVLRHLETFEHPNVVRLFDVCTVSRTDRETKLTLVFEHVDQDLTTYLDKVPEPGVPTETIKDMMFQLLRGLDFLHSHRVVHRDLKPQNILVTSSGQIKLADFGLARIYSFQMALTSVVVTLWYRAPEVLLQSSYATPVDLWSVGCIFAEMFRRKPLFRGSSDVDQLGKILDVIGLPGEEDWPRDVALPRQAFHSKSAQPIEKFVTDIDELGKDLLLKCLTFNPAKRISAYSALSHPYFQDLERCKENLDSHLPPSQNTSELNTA
Sequence of CDK6/Cyclin D1 (P24385 whole entry partner): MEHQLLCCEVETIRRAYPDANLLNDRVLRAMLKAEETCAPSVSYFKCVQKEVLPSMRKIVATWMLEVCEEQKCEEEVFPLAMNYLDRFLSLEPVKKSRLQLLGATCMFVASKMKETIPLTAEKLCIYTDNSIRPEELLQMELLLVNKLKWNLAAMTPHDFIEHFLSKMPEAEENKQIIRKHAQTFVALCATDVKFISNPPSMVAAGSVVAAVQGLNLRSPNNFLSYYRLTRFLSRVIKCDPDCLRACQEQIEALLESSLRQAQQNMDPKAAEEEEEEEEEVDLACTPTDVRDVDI

CDK1/Cyclin E1 = CDK1/Cyclin E1 (Homo sapiens, UniProt P06493); assay: NanoBRET live-cell target engagement, CDK1-NanoLuc/Cyclin E1 in HEK-293; assay type: binding; conditions: CDK1/E1, read-out: Inhibition at 10µM (%)
Sequence of CDK1/Cyclin E1 (P06493 whole entry): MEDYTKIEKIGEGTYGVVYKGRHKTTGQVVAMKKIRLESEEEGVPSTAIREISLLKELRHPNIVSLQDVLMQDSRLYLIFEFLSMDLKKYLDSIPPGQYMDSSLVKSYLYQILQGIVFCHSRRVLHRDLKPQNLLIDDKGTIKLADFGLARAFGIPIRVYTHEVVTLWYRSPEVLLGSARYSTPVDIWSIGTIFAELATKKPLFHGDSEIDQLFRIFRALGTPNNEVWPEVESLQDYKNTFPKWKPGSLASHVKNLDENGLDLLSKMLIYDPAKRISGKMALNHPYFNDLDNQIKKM
Sequence of CDK1/Cyclin E1 (P24864 whole entry partner): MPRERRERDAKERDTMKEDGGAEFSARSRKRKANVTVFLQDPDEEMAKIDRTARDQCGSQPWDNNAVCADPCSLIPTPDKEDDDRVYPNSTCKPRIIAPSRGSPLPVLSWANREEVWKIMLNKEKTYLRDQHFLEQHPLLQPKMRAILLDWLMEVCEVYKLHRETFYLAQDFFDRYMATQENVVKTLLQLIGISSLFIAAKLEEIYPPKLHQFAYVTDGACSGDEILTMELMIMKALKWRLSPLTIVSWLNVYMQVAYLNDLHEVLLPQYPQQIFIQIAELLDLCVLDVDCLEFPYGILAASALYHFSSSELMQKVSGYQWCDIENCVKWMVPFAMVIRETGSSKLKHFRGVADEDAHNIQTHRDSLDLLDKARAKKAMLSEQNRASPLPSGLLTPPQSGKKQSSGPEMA

CDK11B/Cyclin L2 = CDK11B/Cyclin L2 (Homo sapiens, UniProt P21127); assay: NanoBRET live-cell target engagement, CDK11B-NanoLuc/Cyclin L2 in HEK-293; assay type: binding; conditions: read-out: Inhibition at 10µM (%), CDK11b/L2
CDK19/Cyclin C = CDK19/Cyclin C (Homo sapiens, UniProt Q9BWU1); assay: NanoBRET live-cell target engagement, NanoLuc-CDK19/Cyclin C in HEK-293; conditions: read-out: Inhibition at 10µM (%), CDK19/C
CDK20/Cyclin H = CDK20/Cyclin H (Homo sapiens, UniProt Q8IZL9); assay: NanoBRET live-cell target engagement, NanoLuc-CDK20/Cyclin H in HEK-293; assay type: binding; conditions: read-out: Inhibition at 10µM (%), CDK20/H
CDK5/CDK5R1 = CDK5/CDK5R1 (Homo sapiens, UniProt Q00535); assay: NanoBRET live-cell target engagement, CDK5-NanoLuc/CDK5R1 in HEK-293; assay type: binding; conditions: CDK5/CDK5R1, read-out: Inhibition at 10µM (%)
Sequence of CDK5/CDK5R1 (Q00535 whole entry): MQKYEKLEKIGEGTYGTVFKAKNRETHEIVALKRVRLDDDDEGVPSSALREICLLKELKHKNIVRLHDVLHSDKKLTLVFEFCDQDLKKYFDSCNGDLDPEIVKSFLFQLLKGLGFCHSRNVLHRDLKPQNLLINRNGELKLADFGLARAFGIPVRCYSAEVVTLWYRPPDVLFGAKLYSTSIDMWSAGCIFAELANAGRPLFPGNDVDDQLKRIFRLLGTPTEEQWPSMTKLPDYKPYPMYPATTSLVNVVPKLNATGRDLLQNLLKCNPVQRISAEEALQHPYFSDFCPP
Sequence of CDK5/CDK5R1 (Q15078 whole entry partner): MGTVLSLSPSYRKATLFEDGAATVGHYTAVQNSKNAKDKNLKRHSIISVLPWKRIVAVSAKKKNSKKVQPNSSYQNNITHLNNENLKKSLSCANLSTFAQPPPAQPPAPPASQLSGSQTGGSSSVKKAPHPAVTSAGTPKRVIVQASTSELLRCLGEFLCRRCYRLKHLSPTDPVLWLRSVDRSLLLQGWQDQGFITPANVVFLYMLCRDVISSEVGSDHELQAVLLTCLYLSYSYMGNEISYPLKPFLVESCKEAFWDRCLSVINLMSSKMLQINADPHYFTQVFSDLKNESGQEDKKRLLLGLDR

CDK4/Cyclin D1 = CDK4/Cyclin D1 (Homo sapiens, UniProt P11802); assay: NanoBRET live-cell target engagement, NanoLuc-CDK4/Cyclin D1 in HEK-293; assay type: binding; conditions: CDK4/D1, read-out: Inhibition at 10µM (%)
CDK17/Cyclin Y = CDK17/Cyclin Y (Homo sapiens, UniProt Q00537); assay: NanoBRET live-cell target engagement, CDK17-NanoLuc/Cyclin Y in HEK-293; assay type: binding; conditions: read-out: Inhibition at 10µM (%), CDK17/Y
Sequence of CDK17/Cyclin Y (Q00537 whole entry): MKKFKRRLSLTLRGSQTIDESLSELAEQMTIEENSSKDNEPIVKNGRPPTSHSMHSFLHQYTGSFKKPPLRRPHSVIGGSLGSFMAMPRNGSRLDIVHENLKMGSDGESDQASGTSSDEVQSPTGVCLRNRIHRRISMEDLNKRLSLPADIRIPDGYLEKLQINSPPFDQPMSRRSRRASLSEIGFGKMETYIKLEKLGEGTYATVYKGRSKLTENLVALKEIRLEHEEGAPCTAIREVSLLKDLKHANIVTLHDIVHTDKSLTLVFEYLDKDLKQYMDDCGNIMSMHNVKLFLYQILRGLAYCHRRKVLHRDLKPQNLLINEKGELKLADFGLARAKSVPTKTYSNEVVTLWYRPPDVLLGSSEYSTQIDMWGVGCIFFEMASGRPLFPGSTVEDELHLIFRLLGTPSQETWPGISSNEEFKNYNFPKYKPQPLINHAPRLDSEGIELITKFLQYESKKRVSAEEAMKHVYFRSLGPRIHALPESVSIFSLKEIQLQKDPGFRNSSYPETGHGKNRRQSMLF
Sequence of CDK17/Cyclin Y (Q8ND76 whole entry partner): as the sequence (Q8ND76 whole entry partner) above

CDK16/Cyclin Y = CDK16/Cyclin Y (Homo sapiens, UniProt Q00536); assay: NanoBRET live-cell target engagement, CDK16-NanoLuc/Cyclin Y in HEK-293; assay type: binding; conditions: read-out: Inhibition at 10µM (%), CDK16/Y
CDK2/Cyclin E1 = CDK2/Cyclin E1 (Homo sapiens, UniProt P24941); assay: NanoBRET live-cell target engagement, CDK2-NanoLuc/Cyclin E1 in HEK-293; assay type: binding; conditions: CDK2/E1, read-out: Inhibition at 10µM (%)
CDK14/Cyclin Y = CDK14/Cyclin Y (Homo sapiens, UniProt O94921); assay: NanoBRET live-cell target engagement, CDK14-NanoLuc/Cyclin Y in HEK-293; assay type: binding; conditions: read-out: Inhibition at 10µM (%), CDK14/Y
Sequence of CDK14/Cyclin Y (O94921 whole entry): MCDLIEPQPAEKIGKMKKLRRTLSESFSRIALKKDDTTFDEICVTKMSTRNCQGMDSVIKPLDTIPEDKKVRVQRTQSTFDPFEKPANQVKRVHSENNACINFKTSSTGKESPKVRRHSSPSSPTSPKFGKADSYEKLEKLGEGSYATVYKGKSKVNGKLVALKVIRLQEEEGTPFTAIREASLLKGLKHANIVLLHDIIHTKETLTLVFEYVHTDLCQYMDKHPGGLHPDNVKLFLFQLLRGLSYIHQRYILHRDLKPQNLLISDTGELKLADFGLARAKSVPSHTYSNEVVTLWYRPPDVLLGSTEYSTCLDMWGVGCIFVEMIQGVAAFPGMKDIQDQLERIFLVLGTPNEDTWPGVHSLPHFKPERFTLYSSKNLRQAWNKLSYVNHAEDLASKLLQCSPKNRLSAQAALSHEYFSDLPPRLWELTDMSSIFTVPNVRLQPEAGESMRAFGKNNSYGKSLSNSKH
Sequence of CDK14/Cyclin Y (Q8ND76 whole entry partner): as the sequence (Q8ND76 whole entry partner) above

CDK18/Cyclin Y = CDK18/Cyclin Y (Homo sapiens, UniProt Q07002); assay: NanoBRET live-cell target engagement, CDK18-NanoLuc/Cyclin Y in HEK-293; assay type: binding; conditions: read-out: Inhibition at 10µM (%), CDK18/Y

Compound: COc1ccccc1-c1cc(Nc2cccc(CS(N)(=O)=O)c2)ncn1 [LDC000067]
- inhibition at 10 µM (CDK13/Cyclin K; average): 10.2%
- inhibition at 10 µM (CDK13/Cyclin K; experiment 1): 7.7%
- inhibition at 10 µM (CDK13/Cyclin K; experiment 2): 12.8%
- inhibition at 10 µM (CDK10/Cyclin L2; average): 6.6%
- inhibition at 10 µM (CDK10/Cyclin L2; experiment 1): 10.2%
- inhibition at 10 µM (CDK10/Cyclin L2; experiment 2): 3.1%
- inhibition at 10 µM (CDK9/Cyclin K; average): 88.8%
- inhibition at 10 µM (CDK9/Cyclin K; experiment 1): 87.2%
- inhibition at 10 µM (CDK9/Cyclin K; experiment 2): 90.3%
- inhibition at 10 µM (CDK8/Cyclin C; average): 5.3%
- inhibition at 10 µM (CDK8/Cyclin C; experiment 1): 5.1%
- inhibition at 10 µM (CDK8/Cyclin C; experiment 2): 5.6%
- inhibition at 10 µM (CDK7; average): -9.3%
- inhibition at 10 µM (CDK7; experiment 1): -12.1%
- inhibition at 10 µM (CDK7; experiment 2): -6.5%
- inhibition at 10 µM (CDK15/Cyclin Y; average): -1%
- inhibition at 10 µM (CDK15/Cyclin Y; experiment 1): 3%
- inhibition at 10 µM (CDK15/Cyclin Y; experiment 2): -5%
- inhibition at 10 µM (CDK11A/Cyclin L2; average): 7.5%
- inhibition at 10 µM (CDK11A/Cyclin L2; experiment 1): 4.3%
- inhibition at 10 µM (CDK11A/Cyclin L2; experiment 2): 10.7%
- inhibition at 10 µM (CDK6/Cyclin D1; average): 38.7%
- inhibition at 10 µM (CDK6/Cyclin D1; experiment 1): 31.9%
- inhibition at 10 µM (CDK6/Cyclin D1; experiment 2): 45.4%
- inhibition at 10 µM (CDK1/Cyclin E1; average): 31.6%
- inhibition at 10 µM (CDK1/Cyclin E1; experiment 1): 30.7%
- inhibition at 10 µM (CDK1/Cyclin E1; experiment 2): 32.5%
- inhibition at 10 µM (CDK11B/Cyclin L2; average): 10.2%
- inhibition at 10 µM (CDK11B/Cyclin L2; experiment 1): 9.7%
- inhibition at 10 µM (CDK11B/Cyclin L2; experiment 2): 10.7%
- inhibition at 10 µM (CDK19/Cyclin C; average): 11.4%
- inhibition at 10 µM (CDK19/Cyclin C; experiment 1): 16.6%
- inhibition at 10 µM (CDK19/Cyclin C; experiment 2): 6.1%
- inhibition at 10 µM (CDK20/Cyclin H; experiment 1): 11.2%
- inhibition at 10 µM (CDK20/Cyclin H; experiment 2): 17.8%
- inhibition at 10 µM (CDK5/CDK5R1; average): 11.4%
- inhibition at 10 µM (CDK5/CDK5R1; experiment 1): 17.5%
- inhibition at 10 µM (CDK5/CDK5R1; experiment 2): 5.3%
- inhibition at 10 µM (CDK4/Cyclin D1; average): 44%
- inhibition at 10 µM (CDK4/Cyclin D1; experiment 1): 41.2%
- inhibition at 10 µM (CDK4/Cyclin D1; experiment 2): 46.7%
- inhibition at 10 µM (CDK17/Cyclin Y; average): 19%
- inhibition at 10 µM (CDK17/Cyclin Y; experiment 1): 20.7%
- inhibition at 10 µM (CDK17/Cyclin Y; experiment 2): 17.3%
- inhibition at 10 µM (CDK16/Cyclin Y; experiment 1): 17%
- inhibition at 10 µM (CDK16/Cyclin Y; experiment 2): 12.6%
- inhibition at 10 µM (CDK2/Cyclin E1; average): 18.7%
- inhibition at 10 µM (CDK2/Cyclin E1; experiment 1): 15.1%
- inhibition at 10 µM (CDK2/Cyclin E1; experiment 2): 22.2%
- inhibition at 10 µM (CDK14/Cyclin Y; average): -2.3%
- inhibition at 10 µM (CDK14/Cyclin Y; experiment 1): -0.216%
- inhibition at 10 µM (CDK14/Cyclin Y; experiment 2): -4.4%
- inhibition at 10 µM (CDK18/Cyclin Y; average): 8.7%
- inhibition at 10 µM (CDK18/Cyclin Y; experiment 1): 5.1%
- inhibition at 10 µM (CDK18/Cyclin Y; experiment 2): 12.3%
